Series [1] is described as follows: Related substance creation under stress conditions (HPLC). In kind it is physicochemical. To be noted: stress conditions 60±2° C. and 85±5% (RH), sealed glass vial; for Total related substance: after 4 week storage. Here is the method: Each raw material was sealed in a glass vial and sampled at different elapsed time. The samples were evaluated by HPLC analysis. […] Based on the above results, the crystalline forms A and G were selected and used for the study for manufacturing an oral pharmacological composition.

A short description of series [2]: Storage stability of crystalline forms (appearance, XRD, related substances). In kind it is physicochemical. To be noted: 25° C./97% RH and 40° C./75% RH, 7 days; for State of crystalline form (XRD): hard capsules; for Appearance and crystalline structures / Creation of related substances: uncapped glass vial. Here is the method:
Additionally, the crystalline forms of the compound of Formula 1 were evaluated for storage stability. The crystalline form A of Preparative […] conditions (25° C./97% RH) and accelerated storage conditions (40° C./75% RH) for 7 days. X-ray diffraction analysis was performed in accordance with the same method as described in Preparative Examples 5 and 6.

Series [3] in a line: Dissolution rates of crystalline forms in hard capsules. To be noted: 900 ml pH 1.2 solution, 50 and 100 rpm, 37±0.5° C., 2 hr. In kind it is physicochemical. As for the experimental part:
In this example, the dissolution rates of the crystalline forms of the compound of Formula 1 were examined. Specifically, each of the crystalline form A of Preparative Example 5 and the crystalline form G of Preparative Example 6 was filled in hard capsules and was then eluted in 900 ml of a pH 1.2 solution at different revolution numbers of 50 and 100 rpm and a temperature of 37±0.5° C. for 2 hr. The eluted particles were analyzed under the following HPLC conditions:
Column: Hypurity C18, 250×4.6 mm, 5 μm or its equivalent column
Detector: UV absorption spectrometer (measured at 325 nm)
Column temperature: 30° C.
Mobile phase: A—acetonitrile, B—water, A:B=60:40, v/v %

Series [4] in a line: Pharmacokinetic properties of crystalline forms after oral administration. In kind it is in vivo. To be noted: single oral dose, male SD rats; for AUC / Cmax / Tmax: about 5 mg in 10 mL 0.5% methylcellulose, 10 mL/Kg. Here is the method:
The pharmacokinetic properties of the different crystalline forms of the compound of Formula 1 were analyzed in vivo. About 5 mg of each of the crystalline form A of Preparative Example 5 and the crystalline form G of Preparative Example 6 was suspended in 10 mL of a 0.5% methylcellulose solution to produce a formulation for oral use. Then, 6 week old male SD rats (Orient Bio. Inc., Korea) were divided into two groups. About 3 mL (10 mL/Kg) of the oral formulation was once administered orally to each rat and blood samples were drawn from the rat at predetermined intervals of 0.167, 0.5, 1.0, 2.0, 4.0, 6.0, 8.0, and 24.0 hr. The blood samples were used to analyze the pharmacokinetic parameters of the crystalline form.
The pharmacokinetic parameters of the crystalline forms were analyzed using Waters Quattro premier XE 2795 Alliance HT (Waters) under the following conditions: flow rate=0.25 ml/min, column temperature=40° C., injection volume=7 μL, and mobile phase=A: 1 mM ammonium acetate & 0.1% acetic acid (35%), B: ACN (65%). Linearity was established with 8 different standard concentrations.
The oral formulations including the compound of Preparative Example 5 and the compound of Preparative Example 6, respectively, were administered to the different rats.

Series [5] is described as follows: Light stability of crystalline form A in capsules. To be noted: light stress storage conditions. In kind it is physicochemical. Here is the method:
The crystalline form A was filled in a hard capsule (2 mg per capsule) and stored under the light stress conditions shown in Table 11. Thereafter, the appearance of the crystalline form A, the retention time of the major peak, the amounts (%) of related substances, and the compound content were analyzed.

Series [6] in a line: Solubility test in solvents, up to 200 vol (Table 1). In kind it is physicochemical. To be noted: organic solvent or mixture, thermodynamic from solid, about 5 mg compound, solvent named in the row (c1). The text has this:
Then, the solvents were evaporated at room temperature for drying and XRPD patterns of the obtained dried materials were confirmed.

Series [7] is described as follows: Particle size analysis by laser diffraction. Format: physicochemical. To be noted: dry module, 2 bar. Here is the method:
The particle sizes of the crystalline form of Comparative Examples 1 and 2 and Example 39 were analyzed using a laser diffraction-based particle size analyzer (Mastersizer 2000®, Malvern). After each sample was fed into a dry module (Scirocco 2000®, Malvern) at a pressure of 2 bar, the 50% volume particle diameter (d(0.5)) and 90% volume particle diameter (d(0.9)) of the particles were measured.

Series [8] is described as follows: Solubility test in 28 solvents at r.t. and 50° C. (Table 2).
Method: When dissolution was incomplete during the experiment, the solution was maturated by repeatedly heating to 50° C. and then cooling to room temperature 8 times for 24 hr in an incubation chamber. After maturation, the solvent was dried at room temperature.
During the experiment, the completely dissolved solution was stored under a cold condition (4° C.) for 24 hr to allow crystal formation, recovered and dried at room temperature. Then XRPD analysis was performed.

The structures appear in SMILES notation. Like-named read-outs stand apart in the source and are kept apart here. Some results are limits rather than exact numbers.

Take `CC1(C)OC(c2ccc(S(N)(=O)=O)cc2)=C(c2cccc(F)c2)C1=O` [Preparative Example 5]: in series [1], the Total related substance entry is reported as “about 0.1%”. Moreover, in series [2], the “State of crystalline form (XRD)” value is reported as “maintained stable”; the “Appearance and crystalline structures” value is given as “remained unchanged”; the “Creation of related substances” value was “rarely observed”. For the same compound, in series [3], the Dissolution rate entry was “higher dissolution rates than the crystalline form G”. Besides, the AUC (commonly concentration integrated over time) in series [4] (male, SD, rat, blood, po, 5 mg, read-out: AUC) came out at 2320 ng·h/mL. In addition, the Cmax (commonly the maximum level reached in the sampled fluid or tissue) in series [4] (male, SD, rat, blood, po, 5 mg, read-out: Cmax) turned out to be 751 ng/mL. Further, the time to peak (Tmax) (usually the time from dosing to the highest level) in series [4] (male, SD, rat, blood, po, 5 mg, read-out: Tmax) was found to be 30 min. Moreover, the “In vivo dissolution rates (blood levels over time)” value in series [4] is reported as “higher in vivo dissolution rates than the crystalline form G of Preparative Example 6”. The “Time until related substances exceeded the criteria” value in series [5] is on record as not above 7 days.

With `CC1(C)OC(c2ccc(S(N)(=O)=O)cc2)=C(c2cccc(F)c2)C1=O` [Preparative Example 6], the Total related substance entry in series [1] is “about 0.1%”. Besides, in series [2], the “State of crystalline form (XRD)” value was “maintained stable”; the “Appearance and crystalline structures” value is given as “remained unchanged”; the “Creation of related substances” value is reported as “rarely observed”. In addition, in series [4], the AUC is 2416.835 ng·h/mL, the Cmax is given as 513.614 ng/mL and the Tmax came to 60 min.

As for `CC1(C)OC(c2ccc(S(N)(=O)=O)cc2)=C(c2cccc(F)c2)C1=O` [crystalline form B], in series [1], the “Level of total related substance over time” value is recorded as “rapidly increased”.

`CC1(C)OC(c2ccc(S(N)(=O)=O)cc2)=C(c2cccc(F)c2)C1=O` [Example 5]: the solubility (in general, the dissolved amount per volume that the medium holds) in series [6] (read-out: Solubility at 200 vol (1000 uL)) was less than 5000 µg/mL.

Consider `CC1(C)OC(c2ccc(S(N)(=O)=O)cc2)=C(c2cccc(F)c2)C1=O` [Comparative Example 1], for which, in series [7], the “Particle size d(0.1)” value is on record as 40.55 μm; the “Particle size d(0.5), 50% volume particle diameter” value came to 136.49 μm; the “Particle size d(0.9), 90% volume particle diameter” value was 527.04 μm.

Consider `CC1(C)OC(c2ccc(S(N)(=O)=O)cc2)=C(c2cccc(F)c2)C1=O` [Comparative Example 2], for which, in series [7], the “Particle size d(0.1)” value came to 5.15 μm; the “Particle size d(0.5), 50% volume particle diameter” value was determined as 32.17 μm; the “Particle size d(0.9), 90% volume particle diameter” value is 83.54 μm.

For the compound `CC1(C)OC(c2ccc(S(N)(=O)=O)cc2)=C(c2cccc(F)c2)C1=O` [Example 4], the solubility in series [6] (read-out: Solubility at 100 vol (500 uL)) is more than 10000 µg/mL.

On to `CC1(C)OC(c2ccc(S(N)(=O)=O)cc2)=C(c2cccc(F)c2)C1=O` [compound of Formula 1], for which the “Dissolution in solvent volume up to 100 times, heated up to 50° C.” value in series [8] (IPA, Toluene, TBME, Diethyl ether, Heptane, water) is “not dissolved”. Moreover, the “Dissolution in solvent volume 10 times the raw material” value in series [8] (acetone, 2-butanone, THF, DMSO, Methylpyrrolidine, Dioxane, acetonitrile aqueous solution, NMP, 1-methoxy-IPA) is on record as “dissolved”. Besides, the “Dissolution in solvent volume 20 times to 40 times the raw material” value in series [8] (ethyl acetate, acetonitrile, MIBK, DCM, Nitromethane) is on record as “dissolved”.

The values above are taken from patent publication US10413520B2, “Oral pharmacological composition including 5-{4-(amino sulfonyl)phenyl}-2,2-dimethyl-4-(3-fluorophenyl)-3(2H)-furanone having crystalline structure with excellent stability” (CRYSTALGENOMICS, INC., priority 2014, dated 2019).
